Here are results for 1 compound from US20250280826A1, “PLANT GROWTH PROMOTER” (KAO CORPORATION, priority 2022, published 2025).

Structures are written as SMILES.

In assay [1] the test system is soybean. The assay is described as follows: Example 2: soybean nodule activity (ureide in exudate) one week after foliar spray. Type of assay: in vivo. The protocol:
Medium-term fertilizer effect type culture soil (Takii hydrous cell medium-term fertilizer effect type, Takii & Co., Ltd.) and vermiculite grains (Akagi-Engei Co., Ltd.) were mixed at a volume ratio of 1:1, and the soil was placed in a polypot (diameter: 10.5 cm, height: 9 cm). The soybean seeds used were “Enrei” (purchased from Nikko Seed Co. Ltd.). After tap water was supplied in an amount of 250 mL per pot, 2 seeds per pot were each sown at a depth of from about 1 to 2 cm from the soil surface. The number of repeats in each test plot was 6 (n=6).
1.5% agar (Wako Pure Chemical Industries, Ltd.) was added to Yeast-Mannitol (YM) medium (0.5 g of K2HPO4, 0.2 g of MgSO4-7H2O, 0.1 g of NaCl, 0.4 g of yeast extract, 10 g of mannitol, and 1 L of distilled water (pH: 6.8)) to prepare a solid medium, and a soybean Rhizobium (Bradyrhizobium japonicum) NBRC14783T strain was grown on the solid medium. A platinum loop of the grown Rhizobium was taken and inoculated in 50 mL of YM liquid medium in a Sakaguchi flask with a volume of 500 mL, and shake-cultured at 30° C. for about 36 hours. […]
Exudate components contained in the cotton balls were eluted with ultrapure water and filtered using Micro Biospin chromatography column (Bio-Rad Laboratories, Inc.). […] The 1 000-fold diluted filtrate was quantified. […]

The subject of assay [2] is soybean. The experiment in a line: Example 4: soybean yield-enhancing effect in field (dry grain mass). Type of assay: in vivo. Conditions: ascorbic acid 1,500 ppm, one foliar spray, 6.7 mL per plant, day 75 after sowing. The protocol:
The influence of foliar spray of a composition containing 1 500 ppm ascorbic acid on soybean yield was evaluated. Foliar spray was carried out only once, and types of test plots were examined (Table 5). The cultivation of soybean was carried out in a field in Tochigi Prefecture, and the soybean cultivar used was “Sato no Hohoemi.” Of the field, a ridge with a width of 2 m excluding the perimeter was used as one plot, and foliar spray treatment was carried out. 3 plot tests were carried out per test plot. An average of 10 plants were cultivated in the range of 2 m, which was set as one plot. In addition to the reagents mentioned in Example 2, polyoxyethylene lauryl ether was used as a nonionic surfactant. Further, the urea, potassium dihydrogen phosphate, sodium sulfite, glutathione, and EDTA used were those manufactured by FUJIFILM Wako Pure Chemical Corporation. The reagents were dissolved in tap water or deionized water to prepare spraying solutions. By using a battery-driven atomizer (GT-5HS, Koshin Ltd.), 6.7 mL of the ascorbic acid aqueous solution per plant was sprayed over the entire soybean plant body. […] The dry grain mass was measured as yield data. After calculating the average grain weight of each plant in one plot, the mean and the standard deviation for the eight plots were calculated (FIG. 9).

Regarding `O=C1O[C@H]([C@@H](O)CO)C(O)=C1O` [ascorbic acid, (R)-3,4-dihydroxy-5-((S)-1,2-dihydroxyethyl)furan-2(5H)-one], the nodule activity result with soybean [1] (ascorbic acid 1,500 ppm dissolved in deionized water, soybean early growth stage) was “increased”. The “application effect of ascorbic acid (nodule activity)” value in the assay on soybean [1] (ascorbic acid 1,500 ppm dissolved in tap water) was “tended to decrease”. Further, in the assay on soybean [2], the “effects of tap water and deionized water on seed weight” value is “different from each other”.
